Source: article PMC12040169 (PLOS Biology, 2025)

Experiment: in vitro
Conditions: human, hela cells, % viability

SMILES	viability at 28.5 h, 10 µM [%]
CC(=O)c1cc(CCCO)n(Cc2ccco2)c1C [CBK022013]	115
COc1cc(/C=C2\C=C(c3ccc(-c4ccccc4)cc3)OC2=O)ccc1O [CBK265594]	88.5
Cc1cc(C)n2nc(SCC(=O)O)nc2n1 [CBK268536]	111
O=C1CN(C(=O)c2cc(-c3ccncc3)nc3ccccc23)CCN1 [CBK304370]	104
CC1C(c2ccccc2)CCC(C(=O)O)C1C(=O)O (centres unmarked) [CBK286566]	90.5
CCOC(=O)c1sc2ncccc2c1N [CBK115371]	83.9
O=C1CCC[C@]2(CN(Cc3ccccc3)C[C@H]2c2cccnc2)N1 [CBK283349]	96.1
Cc1c(CN(C)CC(=O)Nc2cccc(C(F)(F)F)c2)cnn1C [CBK304341]	85
Nc1ncc(-c2ccsc2)nc1NCc1ccncc1 [CBK063614]	107
COC[C@@H]1OC[C@@]2(C)C3CC[C@@H](O)[C@@H](CC(=O)N4CCCCC4)[C@]3(C)CC[C@H]2O1 (some centres unmarked) [CBK289573]	88.3
CC1(C)CC(NC(=O)C(=O)NCCc2ccc(Cl)cc2)CC(C)(C)N1 [CBK262363]	83.8
Cc1ccc2nc(CSc3ncnc4sc(C)cc34)[nH]c2c1 [CBK270047]	97.1
CCOc1ccccc1N1CCN(C(C(=O)O)c2c[nH]c3ccc(CO)cc23)CC1 (centres unmarked) [CBK286816]	90.1
Cc1csc(C(Cc2ccsc2)NC(=O)CN2CCCC2=O)n1 (centres unmarked) [CBK285046]	81.9
CC(C)Nc1cncc(OCCCN(C)C)n1 [CBK115600]	105
COc1ccc(CN2CCC(O)CC2)c(OC)c1 [CBK261522]	95.9
Cn1c(N2CC[C@H](O)C2)nc2cc(C(=O)NCCn3cccc3)ccc21 [CBK307480]	83.6
FC(F)(F)c1nc2ccccc2nc1SCCc1ccccn1 [CBK103731]	109
CC1=C[C@@H](CC#N)[C@H](C(C)C)C[C@H]1CC(=O)Nc1ccccn1 [CBK289215]	87
COc1ccc(CCCC(=O)Nc2cc(N3CCNCC3)ncn2)cc1OC [CBK107856]	93.9
Nc1nnc(SCC(=O)N2CCN(C(c3ccccc3)c3ccccc3)CC2)n1-c1ccccc1 [CBK266696]	108
COc1ccc(C(C)C)cc1-c1nccnc1NCC1COC(C)(C)O1 (centres unmarked) [CBK036930]	101

SMILES	viability at 28.5 h, 10 µM [%]
Cc1cc(C)n(CC(C)CNC(=O)Cc2csc(-c3ccco3)n2)n1 (centres unmarked) [CBK305628]	103
O=C(O)CCC(=O)N1N=C(c2c(-c3ccccc3)c3cc(Cl)ccc3[nH]c2=O)CC1c1ccccn1 (centres unmarked) [CBK296106]	97.3
Cc1cc2nc(NS(C)(=O)=O)n(S(C)(=O)=O)c2cc1C [CBK023112]	106
COc1ccccc1C(=O)N1CCC(Cc2ccc(-c3ccccc3)cc2)(C(N)=O)CC1 [CBK285774]	100
Cc1cc(C)n2nc(NC(=O)C(C)Oc3ccccc3)nc2n1 (centres unmarked) [CBK270039]	89.9
CNCCc1n[nH]c(N)n1 [CBK020959]	89.4
CCn1c(C)nc2cc(NC(=O)Cn3cnc4ccccc43)ccc21 [CBK281832]	94.1
Cn1c2c(c(=O)n(C)c1=O)[C@H]1[C@H](O)[C@H](O)C[C@H]1C1(CCC1)N2 [CBK303250]	93.6
CCN(CC(=O)N1CCN(c2cc(Cl)ccc2C)CC1)S(=O)(=O)c1ccc2ccccc2c1 [CBK268827]	92.8
Cc1ccc(S(=O)(=O)NC(Cc2c[nH]c3ccccc23)C(=O)O)cc1 (centres unmarked) [CBK260966]	103
CCn1nc2c3ccccc3nc(C3CC3)n2c1=O [CBK284008]	68.8
CC1(C)CC(O[Si](C)(C)OC2CC(C)(C)NC(C)(C)C2)CC(C)(C)N1 [CBK261942]	99.3
CN1CCN(c2cc(N3CCN(S(=O)(=O)c4ccc5ccccc5c4)CC3)ccc2[N+](=O)[O-])CC1 [CBK264791]	97.6
CN1C(=O)c2ccccc2OCCCCC[C@H]2[C@@H]1CCCN2C(=O)c1cc2c([nH]c1=O)CCC2 [CBK292034]	114
Cc1nn(C)c(C)c1OCC(=O)Nc1cc(C(C)(C)C)sc1C#N [CBK305383]	101
O=C(C1CCCCC1)N1CCC(n2nc(C3CC3)ccc2=O)CC1 [CBK284240]	90.7
FC(F)(F)c1cccnc1OCCOc1ccc(Cl)cc1 [CBK116621]	90.5
Cc1ccccc1OCc1nc(C#N)c(NCc2ccc3c(c2)OCO3)o1 [CBK073372]	109
CSCCOc1cc(N2CCCC2)ncn1 [CBK115900]	90
COC(=O)c1c(-c2ccncc2)csc1NC(=O)Cc1ccc([N+](=O)[O-])cc1 [CBK268119]	90.1
Nc1ccc(-c2cn3ccnc3c(NCC3CC3)n2)cc1 [CBK066677]	101
O=C(NCCO)c1cccc(-c2cncc(NCCCN3CCOCC3)n2)c1 [CBK065432]	99.4

SMILES	viability at 28.5 h, 10 µM [%]
Nc1ncccc1OCCOc1cccnc1N [CBK022067]	89.3
COc1ccc(NC(=O)Nc2ccccc2C(N)=O)cc1OC [CBK267061]	94.1
Cc1ccc(C)n1-c1ccc(CC(=O)O)cc1 [CBK116374]	92.2
COc1ccc(CCc2nc(C)cc(CN(C)C)c2O)cc1 [CBK278313C]	106
O=C(COc1ccc2ccccc2c1)Nc1ccc(N2CCN(Cc3ccccc3)CC2)cc1 [CBK266104]	98.3
N#Cc1ccc(COc2cccc(Cl)c2Cl)cc1 [CBK002611]	92.5
CN(C(=O)C1(NC(N)=O)CC1)c1nc2c(s1)CC(c1ccccc1)CC2 (centres unmarked) [CBK306022]	93
CCOc1ccc(NC(=O)N(CCO)Cc2nccn2C)cc1C#N [CBK307634]	82.6
CC(C)CNc1nc(-c2cccc(O)c2)cnc1N [CBK063862]	99.1
CS(=O)(=O)Nc1ncc(Br)cc1C(=O)Nc1ccc(C(F)(F)F)cc1 [CBK076485]	96.7
O=C(c1ccccc1F)N1CCC(c2n[nH]c3ncccc23)CC1 [CBK284903]	91.7
COc1ccc(C)cc1C1(CNC(=O)C2CC2C(=O)O)CCOCC1 (centres unmarked) [CBK304492]	82
CCS(=O)(=O)c1ccc2oc([C@H]3CCN(S(=O)(=O)c4ccccc4)C3)nc2c1 [CBK289382]	88.2
COCCN(C(=S)Nc1ccc(OC)cc1)C(C)c1cccnc1 (centres unmarked) [CBK294471]	83.7
O=C(c1cccc(S(=O)(=O)Nc2ccccn2)c1)N1CCCc2ccccc21 [CBK269645]	84.9
CCN(CC)CCC(=O)N1CC2(CCN(C(=O)OCc3ccccc3)CC2)c2ccccc21 [CBK122479]	106
CC(=O)NCCCCCC(=O)Nc1ccc(Cl)cn1 [CBK091341]	92.3
Cn1ccnc1C1(O)CCN(C(=O)c2cccc(F)c2)CC1 [CBK283543]	107
Cc1cn(S(=O)(=O)N(C)C)nc1-c1ccccc1 [CBK005210]	89.9
COc1ccnc(N2CCCN(CCc3ccc(OC)c(OC)c3)CC2)n1 [CBK084002]	85
Cc1nn(C)cc1-c1cncn1CCCC(C)(C)CO [CBK281492]	86.1
